Assay results as given in patent US20210187014A1 (The Regents of the University of Colorado, a body corporate, priority 2018, published 2021).

Legend:
[1] = system: C. elegans; experiment: C. elegans larval growth assay: heat-killed E. coli plus trace live E. coli, worm volume; format: in vivo; conditions: for worm growth with dietary supplementation: worms fed heat-killed E. coli plus live entA- or entF- mutant E. coli (Ent-deficient food)
From the text: In one embodiment of the inventive technology, the present inventors created a unique assay to facilitate the identification of microbial metabolites that benefit growth and development of host animals. […] This unique feeding condition was used to search for E. coli mutants that fail to support normal worm growth, potentially due to their inability to provide specific metabolites to benefit host animals.
E. coli Keio collection screen. Preparation of heat-killed (HK) OP50 plates followed the procedure described previously (Qi et al., 2017). Standard overnight culture of E. coli OP50 grown in LB broth was concentrated to 1/10 vol and was then heat-killed in a 75° C. water bath for 90 min. The 150 µl of the HK-OP50 was spread onto one side of NGM plate. For preparation of bacterial mutant assay plates, E. coli Keio (Baba et al., 2006) mutants were grown overnight at 37° C. in LB medium with […] kanamycin. 0.2 uL of the bacterial culture (OD600) were seeded to the other side of HK OP50 plate. About 300 synchronized L1 worms were added to the screen plate, and cultured at 20° C., then scored for worm size at day 3 and day 4. The entire library was used for the primary screen; each bacterial mutant was screened once. For the secondary screen, 200 candidate mutants were screened (3 replicates) to confirm the slow growth phenotype.
Chemical supplementation of culture plates. For chemical supplementation, each chemical was dissolved in water or DMSO to generate a stock. The stock solution was added to HK OP50 and then spotted onto NGM plates. […] For CaEDTA supplementation (Kiang et al., 2014), 50 ul of CaEDTA (50 ug/ul) was spread onto the center of the NGM plates seeded with OP50, then different volume of the FeCl3[175 ug/ul] […] Bacterial growth analyses. Overnight cultures were diluted to a final OD600=0.01 in 200 μL of NGM liquid medium. Bacteria were grown in 96-well plates with shaking in a Synergy2 plate reader (BioTek) at 37° C. for 17 h. The OD600 was recorded at 20 min intervals.
Analysis of larval growth by measuring worm size. Synchronized L1 worms were seeded on the indicated NGM plate and grew to the indicated times. Photos were taken and worms volume in each photo were measured by WormSizer software (Moore et al., 2013).

[2] = system: whole worm lysates; experiment: Affinity chromatography with immobilized Ent and mass spectrometry to identify Ent-binding proteins; design: species or system C. elegans; conditions: two independent experiments
Method: CTL-2 is a homolog of catalases that are known to bind iron. ATP-1 is the a-subunit of the mitochondrial ATP synthase that is not known for a role in iron biology (Junge and Nelson, 2015).
Isolation of Enterobactin-binding proteins by biotin-IP and LC-MS. Total proteins were extracted from mixed stage worms and then pre-cleaned three times by adding 100 ul Dynabeads® M-280 Streptavidin. Equal volumes of these total protein extracts were then separated to two tubes. Biotin-Ent (5 ug) was added into one tube for IP and Biotin alone (5 ug) was added to another tube as the control, both were incubated overnight at 4° C. After incubating with Dynabeads® M-280 Streptavidin for 2 hours, the beads were washed at least 3 times by 1mL PBS. PBS was then removed from the beads and 200 uL 0.1 M ammonium bicarbonate (ABC)/0.001% deoxycholic acid (DCA) was added. The samples were reduced using 5 mM (final) TCEP at 60° C. for 30 min and alkylated using 15 mM iodoacetamide at room temperature for 20 min. 0.5 ug of trypsin was added to each sample and incubated overnight. The samples were then acidified using 7 uL of formic acid. DCA was removed from the samples by phasetransfer using ethyl acetate. The samples were desalted using a Pierce C18 spin column, and dried using a speed vac. […]

[3] = system: mitochondria; experiment: In vitro mitochondrial iron uptake assay, mitochondria purified from worms (55Fe); format: biochemical, C. elegans; conditions: purified mitochondria incubated with 55FeCl3 +/- Ent
Method: Mitochondrial iron uptake assays. For the in vitro mitochondrial iron uptake assay, the present inventors modified a published procedure for analysis of mammalian cells (Devireddy et al., 2010). […] The samples were incubated for 4 hours at room temperature, and the amount of 55Fe in lysed mitochondria was determined by liquid scintillation.

[4] = system: C. elegans smf-3/DMT1 mutant; experiment: Growth of iron-deficient C. elegans smf-3/DMT1(-) mutant with iron chelator 2,2'-bipyridyl; format: in vivo
Method: FIG. 26. […] All tests were done on a smf-3/DMT1(-) mutant strain in a culture media where an iron chelator (2,2′-bipyridyl) was added to reduce the environmental iron level (FIG. 26A). […] This growth delay was rescued by supplementation with Ent, scored as the percentage of the population at the indicated growth stage. […] The entP,fepA: E. coli mutant cannot synthesize or utilize Enterobactin.
SMF-3/DMT1 is a conserved divalent metal transporter that transports iron into intestinal cells. The smf-3/DMT1 mutant has been established as an iron deficiency model in C. elegans. These mutants have defective iron uptake that results in iron deficiency (Romney et al 2011) and delayed growth under iron-poor growth conditions created by addition of an iron chelator (2,2′-bipyridyl) to the culture media (Raj an et al 2019).
To determine if the Enterobactin supplementation was benefiting the worm directly or benefiting the worm through an E. coli-dependent mechanism, the test was repeated using an E. coli double mutant that cannot synthesize or utilize Ent (entP,fepk).

**Q.** For `O=C(N[C@H]1COC(=O)[C@@H](NC(=O)c2cccc(O)c2O)COC(=O)[C@@H](NC(=O)c2cccc(O)c2O)COC1=O)c1cccc(O)c1O` [Ent, enterobactin], which “rescue of worm growth by Ent supplementation” value ([1]; RNAi of atp-1 (not ctl-2)) is on record?
**A.** prevented the rescue of worm growth

**Q.** What about the worm growth ([1]; ferric chloride added to live wild-type E. coli, with heat-killed E. coli) of the same compound?
**A.** this growth defect was suppressed

**Q.** And the “worm growth with dietary supplementation” value [1]?
**A.** completely overcome

**Q.** What about the “worm growth with dietary supplementation” value ([1]; listed as Enterobactin) of the same compound?
**A.** recovers the growth defect seen with entF-

**Q.** What about the development of worms ([1]; worms fed only heat-killed bacteria) of the same compound?
**A.** did not result in any appreciable effect

**Q.** What about the “candidate Ent-binding proteins captured” value [2] of the same compound?
**A.** CTL-2 and ATP-1

**Q.** And the “increase in 55Fe level in mitochondria” value [3]?
**A.** 10 fold

**Q.** What about the “growth of smf-3(-) mutants” value ([4]; E. coli double mutant that cannot synthesize or utilize Ent) of the same compound?
**A.** rescued the growth of smf-3(-) mutants to adulthood

**Q.** What about the “growth of smf-3(-) mutants” value ([4]; iron chelator 2,2'-bipyridyl in media) of the same compound?
**A.** rescued the growth of smf-3(-) mutants to adulthood
